The nature of one series: in vivo. Further details: species or system souris. To be noted: mouse, po. The source says:
(§1) L'invention a donc encore pour objet un médicament ayant en particulier des activités anticonvulsivante et antianoxique caractérisé en ce qu'il contient, à titre de principe actif un dérivé de formule I. Tous les essais Toxico-pharmacologiques ont été pratiqués sur des souris mâles de souche CHARLES RIVER (CD1).
Dans le cadre de cette étude, on a déterminé l'activité sédative des composés de l'invention; on a utilisé dans ce but, le test du cylindre tournant (Boissier, J.R., Therapie 1958, 13,1074).
Ce test est destiné à apprécier l'aptitude des animaux à coordonner leurs mouvements. Il met en oeuvre un cylindre de bois, d'un diamètre de 4,8 cm, qui-tourne à la vitesse de 4 tours/mn. Le test est pratiqué sur des souris d'un poids 22 g environ. Les produits sont administrés par voie orale à différents lots de 10 animaux. Ces derniers sont placés sur l'appareil 15 minutes après l'administration du produit. On note le pourcentage de souris qui perdent le réflexe d'équilibration, c'est-à-dire qui deviennent incapables de se maintenir sur le cycindre pendant une durée de 2 minutes.
Par la méthode de Finney, on calcule une dose neuroto- xique 50 (DNT 50) qui exprime donc le niveau moyen -des premières atteintes neuromusculaires sous l'influence d'un produit étudié.

A further series relates to Crise pentétrazolique. As to the kind of experiment: Pentetrazole seizure test (protection against tonic seizures). Type of series: in vivo, souris. The conditions noted are these: read-out: DE 50 (protection contre les crises toniques). From the text: On note dans chaque lot le pourcentage de protection contre les crises toniques.
Series [1] relates to Crise électrique supramaximale. As to the kind of experiment: Supramaximal electroshock seizure test. Type of series: in vivo, souris. To be noted: po, 0.5 h; per os, 30 min before supramaximal electroshock (50 HZ, 60 volts, 0,4 sec.), mouse; read-out: DE 50 (hyperextension tonique).
From the text: as §1
Cette expérimentation a été effectuée selon le test de Swinyard et al., (Am.J.Pharmacol, Ther., 1952,168-175). Les traitements ont été administrés per os à des lots de 10 souris 30 mn, avant l'électrochoc supramaximal (courant alternatif de 50 HZ, 60 volts pendant 0,4 sec.) délivré par l'intermédiaire d'électrodes intra-auriculaires. On note le nombre d'animaux dans chaque lot qui ne présentent pas d'hy- perextension tonique lors de la stimulation électrique trans- cranienne, et on détermine la DE 50 exprimée en mg/Kg.
(Protection in the maximal electroshock model is a classic sign of anticonvulsant action.)

Series [2] concerns Crise à l'acide B - mercaptopropionique. As to the kind of experiment: B-mercaptopropionic acid seizure test. Type of series: in vivo, souris. The conditions noted are these: oral, 15 min before acide B-mercaptopropionique 60 mg/Kg I.P., mouse; read-out: DE 50 (the source's name).
From the text: as §1
L'acide B-mercaptopropionique est un inhibiteur de la glutamate-décarboxylase (GAD), enzyme qui catalyse la transformation du glutamate en acide Y-aminobutyrique (GABA). Son action se traduit donc par un abaissemement du taux de ŒBA et la survenue de crises généralisées tonico-cloniques 3 à 4 minutes après son administration. L'acide B-mercaptopropionique a été administré aux souris par voie I.P. à la dose de 60 mg/Kg. Le traitement pour les composés à tester est administré par la voie orale 15 minutes avant l'injection d'acide B-mercaptopionique. Les DE 50 exprimées en mg/Kg, ainsi déterminées sont : • Composé N° 2 = 90 • 5 = 30 • 6 = 60 • 7 = 120 • 8 = 70

The test system of a further series is anoxie par confinement. As to the kind of experiment: Anoxia by confinement (antianoxic activity, survival time). The format is in vivo, souris. To be noted: I.P. immediately before placing in closed 200 ml vessel, mouse; dose not given.
From the text: as §1
Cette activité a été étudiée par la méthode de l'anoxie par confinement.
Des souris (20 par lot) sont placées dans une enceinte (bocal en verre) normobare, normoxique, hermétiquement close de 200 ml. Tous les traitements sont administrés par voie I.P. immédiatement avant l'introduction dans l'enceinte. L'animal est considéré comme mort au moment de l'arrêt respiratoire.
Les bocaux choisis étant très petits, l'activité motrice des animaux est extrêmement faible, ce qui élimine en principe la possibilité d'un résultat positif par effet sédatif. On note dans chaque lot le temps de survie des animaux.

Series [3] is described as follows: Acute oral toxicity (DL 50, Finney method). Further details: species or system souris. To be noted: in vivo, mouse. As for the experimental part: as §1
Ainsi, la DL 50 déterminée par voie orale chez la souris par la méthode Finney(Probit analysis, University Press Cambridge.,. 1971) est de 3000 mg/Kg pour le dérivé N° 5'et supérieure à 1000 mg/Kg pour tous les composés de l'invention.

The next series relates to Crise à la bicuculline. In words: Bicuculline seizure test. To be noted: oral, 30 min before bicuculline 0.65 mg/Kg i.v., observed for 30 min, mouse; read-out: DE 50 (convulsions toniques). Type of series: in vivo, souris.
From the text: as §1
Ce test a été effectué selon la méthode de Pérez de la Mora et Tapia (Biochem. Pharmacol., 1973,19,303-310). Les traitements ont été administrés par voie orale à des lots de 10 souris, 30 minutes avant l'injection de bicuculline (0.65 mg/Kg) par la voie intraveineuse. L'apparition des convulsions toniques a été notée pendant les 30 mn qui ont suivi l'injection de bicuculline. Les DE 50 en mg/Kg ainsi déterminées sont : • Composé N° 5 = 68 • 6 = 61 • 7 = 145 • 8 = 75

The mark [4] stands for this setting: oral, 15 min before pentétrazole 125 mg/Kg i.p., mouse.

Like-named read-outs stand apart in the source and are kept apart here.

Compound `CC1(C(=O)O)CC2CCC(C2)C1` (stereo not shown) [dérivé N° 2, Méthyl-3 bicyclo (3.2.1.) octane carboxylate -3 de sodium] came in with a TD50 at 0.25 h in “in vivo” of 600 mg/kg. For the same compound, the ED50 turned out to be 90 mg/kg with Crise pentétrazolique (setting [4]), 400 mg/kg in series [1] and 90 mg/kg in series [2]. Moreover, the “temps de survie augmenté” value in the series with anoxie par confinement was 15 p 100.

`CC1(C(N)=O)CC2CCC(C2)C1` (stereo not shown) [dérivé N° 5, Méthyl-3 bicyclo (3.2.1.) octane carboxamide-3]: the 50% lethal dose (LD50) (in general, the dose at which mortality reaches 50%) in series [3] came out at 3000 mg/kg. In the series “in vivo”, this compound showed a TD50 at 0.25 h of 365 mg/kg. Besides, the ED50 is 53 mg/kg in the series with Crise pentétrazolique (setting [4]), 210 mg/kg in series [1], 68 mg/kg with Crise à la bicuculline and 30 mg/kg in series [2]. Besides, the “temps de survie augmenté” value in the series with anoxie par confinement was determined as 25 p 100.

As to `CCC1(C(N)=O)CC2CCC(C2)C1` (stereo not shown) [dérivé N° 6, Ethyl-3 bicyclo (3.2.1.) octane carboxamide-3], the TD50 at 0.25 h in the series “in vivo” came to 400 mg/kg. Also, the ED50 in the series on Crise pentétrazolique (setting [4]) amounted to 75 mg/kg; in series [1], 210 mg/kg; in the series on Crise à la bicuculline, 61 mg/kg; in series [2], 60 mg/kg.

In the case of `CC(C)C1(C(N)=O)CC2CCC(C2)C1` (stereo not shown) [dérivé N° 7, Isopropyl-3 bicyclo (3.2.1.) octane carboxamide -3], the TD50 at 0.25 h in “in vivo” was found to be 230 mg/kg. The ED50 in the series with Crise pentétrazolique (setting [4]) amounted to 120 mg/kg; in series [1] it was 260 mg/kg; with Crise à la bicuculline, 145 mg/kg; in series [2] it was 120 mg/kg.

For `CNC(=O)C1(C)CC2CCC(C2)C1` (stereo not shown) [dérivé N° 8, N-Méthyl mêthyl-3 bicyclo (3.2.1.) octane carboxamide-3], in the series “in vivo”, the TD50 at 0.25 h turned out to be 500 mg/kg. Further, the ED50 came out at 115 mg/kg with Crise pentétrazolique (setting [4]), 310 mg/kg in series [1], 75 mg/kg in the series on Crise à la bicuculline and 70 mg/kg in series [2].

Take `CCCC(CCC)C(=O)O` [valproate de sodium, reference compound]: the ED50 in the series on Crise pentétrazolique (Mus musculus, po) was found to be 200 mg/kg.

Values taken from patent EP0130882A2, “Bicyclo(3.2.1)octane carboxylic-acid derivatives, processes for their preparation and their therapeutical use” (SANOFI, priority 1983, dated 1985).
